# Patent US20050112573A1, “Method of detecting toxic substance” (priority 2001, published 2005)
# Test system: yeast genes (level of expressed mRNA)
# Experiment: DNA chip analysis of expressed mRNA of yeast genes after 2 h culture with a toxic chemical substance
# Format: cell-based, Saccharomyces cerevisiae S288C
# Settings: for The level of expressed mRNA in the presence of chemical substance/ (ratio to absence of chemical substance): stress protein genes, DNA chip
# Method: Yeast (Saccharomyces cerevtisiae S288C (α SUC2mal mel gap2 CUP1)) were cultured at 25° C. on YPD medium (yeast extract 1%, polypepton 2%, glucose 2%). One of toxic chemical substances was added to the cell at logarithmic growth phase, and the cell was further cultured for two hours. Cell was cultured without any chemical substance in the same condition, and was used as control. Concentrations of the chemical substances were defined to inhibit the growth of the yeast but not lead to death.
# After the completion of cultivation, the culture was centrifuged to collect the cells. To the cells, sodium acetate buffer (50 mM sodium acetate, 10 mM EDTA, 1% SDS) was added, and the mixture was shaken at 65° C. for five minutes, followed by returning to room temperature, and obtaining the supernatant, which procedure was repeated two times. To the supernatant, ½ amount of a solution of phenol/chloroform was added, and the mixture was centrifuged to give a supernatant, which was added with an equal amount of chloroform, and the mixture was centrifuged to give a supernatant. To the supernatant, an equal amount of isopropanol containing 0.3 M sodium acetate was added, and the mixture was allowed to stand at room temperature for 30 minutes, after which the mixture was centrifuged to give a sediment of the whole RNAs. Seventy % ethanol was added to the sediment, and the mixture was again centrifuged to give a sediment, which was then dried and dissolved in water. mRNA was isolated from the whole RNAs as followings. In view of the fact that a poly A chain is attached to the 3′ terminus of mRNA, a polynucleotide having a poly T structure which was immobilized on the surface of latex beads was used to trap the mRNA, and then the mRNA was washed and eluted with spine column (Oligotex-dT30<Super>mRNA Purification Kit, Takara). Reverse transcription of the mRNA was conducted with a reverse transcriptase (Super Script II Reverse Transcriptase; catalogue No. 18064-014, GibcoBRL) using fluorescence-labeled nucleotides to give cDNAs that were introduced with Cy3-dUTP or Cy5-dUTP during the reverse transcription.
# The labeled cDNAs were dissolved in TE buffer (10 mM Tris-HCl/1 mM EDTA, pH8.0), and the solution was dropped on the DNA chip containing the whole genes of yeast (DNA Chip Research Inc. Japan) so that the cDNAs were hybridized on the DNA chip at 65° C. for over 12 hours. The fluoresces intensity of the DNA chip was read with a scanner, and the ratio relative to the fluorescence intensity resulting from the absence of chemical substance was estimated as the following, which is shown in Tables 1 to 9: [formula]
# In the Tables, “Intensity” indicated in the rightmost column is a value of the level of expressed mRNA of each gene in control cells as divided by the average level of the expressions of the whole genes.
smiles,measurement,setting,value
"C=CC=O [(14), acrolein]","The level of expressed mRNA in the presence of chemical substance/ in its absence, gene YDL078C","yeast gene YDL078C, ratio of DNA chip fluorescence intensity to that without chemical substance",0.8
same,"The level of expressed mRNA in the presence of chemical substance/ (in its absence), gene YDL215C","yeast gene YDL215C, ratio of DNA chip fluorescence intensity to that without chemical substance",1.0
same,The level of expressed mRNA in the presence of chemical substance/The level of expressed mRNA in the absence of chemical substance,yeast gene YDL238C,1.2
same,The level of expressed mRNA in the presence of chemical substance/The level of expressed mRNA in the absence of chemical substance,yeast gene YDR055W,0.9
same,"The level of expressed mRNA in the presence of chemical substance/ (in its absence), gene YDR073W","yeast gene YDR073W, ratio of DNA chip fluorescence intensity to that without chemical substance",1.2
same,"The level of expressed mRNA in the presence of chemical substance/ in its absence, gene YDR079W","yeast gene YDR079W, energy system protein genes, 2 h culture with the chemical, ratio to control without chemical",1.5
same,"The level of expressed mRNA in the presence of chemical substance/ (ratio to absence), gene YDR079W","yeast gene YDR079W, mitochondria-located protein genes, 2 h culture with chemical",1.5
same,The level of expressed mRNA in the presence of chemical substance/The level of expressed mRNA in the absence of chemical substance,yeast gene YDR084C,1.0
same,The level of expressed mRNA in the presence of chemical substance/The level of expressed mRNA in the absence of chemical substance,yeast gene YDR085C,1.6
same,The level of expressed mRNA in the presence of chemical substance/The level of expressed mRNA in the absence of chemical substance,yeast gene YDR104C,1.4
same,The level of expressed mRNA in the presence of chemical substance/The level of expressed mRNA in the absence of chemical substance,yeast gene YDR115W,1.5
same,The level of expressed mRNA in the presence of chemical substance/The level of expressed mRNA in the absence of chemical substance,yeast gene YDR259C,1.5
same,"The level of expressed mRNA in the presence of chemical substance/ (in its absence), gene YDR297W","yeast gene YDR297W, ratio of DNA chip fluorescence intensity to that without chemical substance",0.9
same,The level of expressed mRNA in the presence of chemical substance/The level of expressed mRNA in the absence of chemical substance,yeast gene YDR315C,1.4
same,The level of expressed mRNA in the presence of chemical substance/The level of expressed mRNA in the absence of chemical substance,yeast gene YDR358W,1.2
same,"The level of expressed mRNA in the presence of chemical substance/ (ratio to absence), gene YDR377W","yeast gene YDR377W, mitochondria-located protein genes, 2 h culture with chemical",1.4
same,"The level of expressed mRNA in the presence of chemical substance/ (in its absence), gene YDR387C","yeast gene YDR387C, ratio of DNA chip fluorescence intensity to that without chemical substance",0.9
same,The level of expressed mRNA in the presence of chemical substance/The level of expressed mRNA in the absence of chemical substance,yeast gene YDR388W,0.6
same,The level of expressed mRNA in the presence of chemical substance/The level of expressed mRNA in the absence of chemical substance,yeast gene YDR432W,0.5
same,The level of expressed mRNA in the presence of chemical substance/The level of expressed mRNA in the absence of chemical substance,yeast gene YDR481C,0.9
same,The level of expressed mRNA in the presence of chemical substance/The level of expressed mRNA in the absence of chemical substance,yeast gene YDR510W,1.9
same,The level of expressed mRNA in the presence of chemical substance/ (ratio to absence of chemical substance),yeast gene YEL039C,1.4
same,The level of expressed mRNA in the presence of chemical substance/The level of expressed mRNA in the absence of chemical substance,yeast gene YEL042W,0.6
same,The level of expressed mRNA in the presence of chemical substance/The level of expressed mRNA in the absence of chemical substance,yeast gene YEL066W,1.9
same,"The level of expressed mRNA in the presence of chemical substance/ (in its absence), gene YER015W","yeast gene YER015W, ratio of DNA chip fluorescence intensity to that without chemical substance",1.1
same,The level of expressed mRNA in the presence of chemical substance/The level of expressed mRNA in the absence of chemical substance,yeast gene YER039C,1.2
same,The level of expressed mRNA in the presence of chemical substance/ (ratio to absence of chemical substance),yeast gene YER057C,1.4
same,The level of expressed mRNA in the presence of chemical substance/The level of expressed mRNA in the absence of chemical substance,yeast gene YER107C,1.1
same,The level of expressed mRNA in the presence of chemical substance/The level of expressed mRNA in the absence of chemical substance,yeast gene YER130C,0.8
same,The level of expressed mRNA in the presence of chemical substance/The level of expressed mRNA in the absence of chemical substance,yeast gene YFL028C,1.6
same,The level of expressed mRNA in the presence of chemical substance/The level of expressed mRNA in the absence of chemical substance,yeast gene YFL043C,1.5
same,"The level of expressed mRNA in the presence of chemical substance/ (in its absence), gene YGL035C","yeast gene YGL035C, ratio of DNA chip fluorescence intensity to that without chemical substance",1.1
same,"The level of expressed mRNA in the presence of chemical substance/ (in its absence), gene YGL115W","yeast gene YGL115W, ratio of DNA chip fluorescence intensity to that without chemical substance",1.2
same,The level of expressed mRNA in the presence of chemical substance/ (ratio to absence of chemical substance),yeast gene YGL115W,1.2
same,The level of expressed mRNA in the presence of chemical substance/The level of expressed mRNA in the absence of chemical substance,yeast gene YGL158W,2.3
same,"The level of expressed mRNA in the presence of chemical substance/ (ratio to absence), gene YGL187C","yeast gene YGL187C, mitochondria-located protein genes, 2 h culture with chemical",0.9
same,"The level of expressed mRNA in the presence of chemical substance/ (in its absence), gene YGL205W","yeast gene YGL205W, ratio of DNA chip fluorescence intensity to that without chemical substance",1.0
same,The level of expressed mRNA in the presence of chemical substance/The level of expressed mRNA in the absence of chemical substance,yeast gene YGL229C,1.0
same,"The level of expressed mRNA in the presence of chemical substance/ in its absence, gene YGR062C","yeast gene YGR062C, energy system protein genes, 2 h culture with the chemical, ratio to control without chemical",1.2
same,"The level of expressed mRNA in the presence of chemical substance/ (ratio to absence), gene YGR062C","yeast gene YGR062C, mitochondria-located protein genes, 2 h culture with chemical",1.2
same,"The level of expressed mRNA in the presence of chemical substance/ (in its absence), gene YGR096W","yeast gene YGR096W, ratio of DNA chip fluorescence intensity to that without chemical substance",1.2
same,The level of expressed mRNA in the presence of chemical substance/The level of expressed mRNA in the absence of chemical substance,yeast gene YGR136W,1.1
same,The level of expressed mRNA in the presence of chemical substance/The level of expressed mRNA in the absence of chemical substance,yeast gene YGR189C,0.9
same,The level of expressed mRNA in the presence of chemical substance/The level of expressed mRNA in the absence of chemical substance,yeast gene YGR213C,1.0
same,The level of expressed mRNA in the presence of chemical substance/The level of expressed mRNA in the absence of chemical substance,yeast gene YGR257C,0.9
same,"The level of expressed mRNA in the presence of chemical substance/ (in its absence), gene YGR287C","yeast gene YGR287C, ratio of DNA chip fluorescence intensity to that without chemical substance",1.1
same,"The level of expressed mRNA in the presence of chemical substance/ (in its absence), gene YGR288W","yeast gene YGR288W, ratio of DNA chip fluorescence intensity to that without chemical substance",1.1
same,The level of expressed mRNA in the presence of chemical substance/ (ratio to absence of chemical substance),yeast gene YHL028W,1.3
same,The level of expressed mRNA in the presence of chemical substance/ (ratio to absence of chemical substance),yeast gene YHL046C,1.4
same,The level of expressed mRNA in the presence of chemical substance/The level of expressed mRNA in the absence of chemical substance,yeast gene YHR004C,0.8
same,The level of expressed mRNA in the presence of chemical substance/The level of expressed mRNA in the absence of chemical substance,yeast gene YHR071W,1.6
same,The level of expressed mRNA in the presence of chemical substance/The level of expressed mRNA in the absence of chemical substance,yeast gene YHR139C,2.5
same,The level of expressed mRNA in the presence of chemical substance/The level of expressed mRNA in the absence of chemical substance,yeast gene YHR142W,1.2
same,"The level of expressed mRNA in the presence of chemical substance/ (in its absence), gene YHR210C","yeast gene YHR210C, ratio of DNA chip fluorescence intensity to that without chemical substance",1.0
same,"The level of expressed mRNA in the presence of chemical substance/ (in its absence), gene YIL006W","yeast gene YIL006W, ratio of DNA chip fluorescence intensity to that without chemical substance",1.0
same,The level of expressed mRNA in the presence of chemical substance/ (ratio to absence of chemical substance),yeast gene YIL011W,0.5
same,The level of expressed mRNA in the presence of chemical substance/The level of expressed mRNA in the absence of chemical substance,yeast gene YIL123W,0.3
